Experimental data reported in patent publication US20070176143A1, “Stable ill-defined cubic nanosized particles in a ternary aqueous phase” (YISSYM RESEARCH DEVELOPMENT COMPANY OF THE HEBREW …, priority 2003, published 2007).

Method: Well ordered liquid crystals have many applications all utilizing their relative structured character and the very large surface area they posses.
2 gr of GMO were melted by heating to about 50° C. In a separate vessel, 2 gr of GMO and lycopene (0.0085 gr) were placed. The vessel was closed and its contents were mixed well with vortex until all the lycopene dissolved. 0.5 gr ethanol was added and the combination further mixed. The vessel was placed in a bath at a temperature of 45° C. 2.5 gr water were added.
2 gr of GMO were melted by heating to about 50° C. In a separate vessel, 2 gr of GMO and 0.5 gr of ethanol were placed. The vessel was closed and its contents were mixed well with vortex. The vessel was placed in a bath at 45° C.
2 gr of GMO were melted by heating to about 50° C. In a separate vessel, 2 gr of GMO and carbamazepine (0.044 gr) were placed. The vessel was closed and its contents were mixed well with vortex until all the carbamazepine dissolved. 0.5 gr ethanol was added and the combination further mixed. The vessel was placed in a bath at a temperature of 45° C. 2.5 gr water were added.
2 gr of GMO were melted by heating to about 50° C. In a separate vessel, 2 gr of GMO and phytosterol (0.2 gr) were placed. […] 0.5 gr ethanol was added and the combination further mixed. The vessel was placed in a bath at a temperature of 45° C. 2.5 gr water were added.

Row | Compound | solubilization in an aqueous phase comprising the QL semi-ordered phase
1 | CC(C)=CCC/C(C)=C/C=C/C(C)=C/C=C/C(C)=C/C=C/C=C(C)/C=C/C=C(C)/C=C/C=C(\C)CCC=C(C)C [Lycopene] | successfully solubilized
2 | NC(=O)N1c2ccccc2C=Cc2ccccc21 [carbamazapine, reference compound] | successfully solubilized
3 | CC1=C[C@H](O)CC(C)(C)[C@H]1/C=C/C(C)=C/C=C/C(C)=C/C=C/C=C(C)/C=C/C=C(C)/C=C/C1=C(C)C[C@@H](O)CC1(C)C [leutin] | successfully solubilized
4 | CC1=C(/C=C/C(C)=C/C=C/C(C)=C/C=C/C=C(C)/C=C/C=C(C)/C=C/C2=C(C)CCCC2(C)C)C(C)(C)CCC1 [β-carotene] | successfully solubilized
5 | phytosterol | all the phytosterol dissolved
